The NIST ThermoML archive (doi:10.1021/je901030f)
Numbers after ± are expanded uncertainties.

Settings: 101.33 kPa, Crystal, Buoyancy - hydrostatic balance with magnetic suspension - one sinker

## [Cl-].[Cs+] [cesium chloride]
843 K
  mass density: 3074.5 ± 16 kg/m3
853 K
  mass density: 3067.6 ± 16 kg/m3
863 K
  mass density: 3060.2 ± 16 kg/m3
873 K
  mass density: 3052.4 ± 16 kg/m3
883 K
  mass density: 3046 ± 16 kg/m3
893 K
  mass density: 3040.9 ± 15 kg/m3
903 K
  mass density: 3039.5 ± 15 kg/m3
913 K
  mass density: 3041.8 ± 16 kg/m3

## [Cl-].[K+] [potassium chloride]
973 K
  mass density: 1805.8 ± 9.2 kg/m3
983 K
  mass density: 1803.6 ± 9.2 kg/m3
993 K
  mass density: 1800.6 ± 9.2 kg/m3
1003 K
  mass density: 1797.1 ± 9.1 kg/m3
1013 K
  mass density: 1794.5 ± 9.1 kg/m3
1023 K
  mass density: 1793.6 ± 9.1 kg/m3
1033 K
  mass density: 1793.6 ± 9.1 kg/m3
1043 K
  mass density: 1796.6 ± 9.1 kg/m3

## [Cl-].[Rb+] [rubidium chloride]
903 K
  mass density: 2578.4 ± 13 kg/m3
913 K
  mass density: 2573.5 ± 13 kg/m3
923 K
  mass density: 2567.8 ± 13 kg/m3
933 K
  mass density: 2562.2 ± 13 kg/m3
943 K
  mass density: 2556.1 ± 13 kg/m3
953 K
  mass density: 2551.7 ± 13 kg/m3
963 K
  mass density: 2548.6 ± 13 kg/m3
973 K
  mass density: 2547.6 ± 13 kg/m3
983 K
  mass density: 2550.3 ± 13 kg/m3
993 K
  mass density: 2556.4 ± 13 kg/m3

## [Cl-].[Na+] [sodium chloride]
1013 K
  mass density: 1931.2 ± 9.8 kg/m3
1023 K
  mass density: 1905.8 ± 9.7 kg/m3
1033 K
  mass density: 1890.4 ± 9.6 kg/m3
1043 K
  mass density: 1888.3 ± 9.6 kg/m3
1053 K
  mass density: 1882 ± 9.6 kg/m3
1063 K
  mass density: 1884.9 ± 9.6 kg/m3
1073 K
  mass density: 1889.8 ± 9.6 kg/m3
